Ends that are not written are not given here.
Assays:
[1] = biological target: T1, human CXCR3 (CXCR3-NSO transfectants) (Homo sapiens, UniProt P49682); experiment: microphysiometer bioassay for CXCR3 activation (extracellular acidification rate); format: cell-based; conditions: 1, 5, 10 mglml ligand pumped for 10 min
T1 construct: expressed in transfected cells
T1 sequence (P49682 1-368): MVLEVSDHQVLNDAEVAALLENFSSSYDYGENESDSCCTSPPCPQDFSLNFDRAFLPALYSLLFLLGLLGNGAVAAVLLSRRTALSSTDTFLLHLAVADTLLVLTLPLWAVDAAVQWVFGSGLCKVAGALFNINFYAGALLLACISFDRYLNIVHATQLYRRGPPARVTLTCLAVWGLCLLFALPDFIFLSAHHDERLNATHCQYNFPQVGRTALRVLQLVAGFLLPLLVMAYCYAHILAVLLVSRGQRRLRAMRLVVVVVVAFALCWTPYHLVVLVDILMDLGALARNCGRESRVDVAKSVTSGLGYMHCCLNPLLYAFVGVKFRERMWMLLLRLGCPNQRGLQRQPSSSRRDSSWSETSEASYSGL
Method: (§1) 5X10^5 CXCR3-NSO transfectant cells and untransfected “BONZO-NSO” cells (negative control) were spotted in the microphysiometer chambers along with agarose and 1, 5, 10 […] anti-CXCR3 (FIG 1a) or IP-10 (FIG 1b) was pumped for 10 min. […] The arrow indicates the time that ligands were added to the cells.
A stable line transfectant of NSO-1 cells expressing the cDNA for human CXCR3 was prepared according to standard techniques. The surface expression of hu-CXCR3 on the transfectants compared to untransfected parent NSO-1 cells was confirmed by FACS staining using mouse anti-human CXCR3 monoclonal antibody (R&D systems).
(§2) To establish a bioassay for CXCR3 activation, the CXCR3 transfectant cells were cultured with either human IP-10, or the mouse anti-human CXCR3 antibody, and the physiological response of the cells was measured using a microphysiometer. This machine measures changes in the pH of the extracellular medium of the cell cultures which result from ligand receptor binding on the cell surface. These extracellular acidification rate measurements have previously been used as markers of antigen specific T cell activation and T cell epitope identification. The current assay is used to provide a biological read out for the identification of chemokine or chemokine receptor peptides involved in binding to IP- 10 or agonistic anti-CXCR3 antibody.

[2] = test system: untransfected NSO-1 cells; experiment: microphysiometer acidification rate, untransfected negative control cells; format: cell-based; conditions: untransfected NSO-1 (BONZO-NSO) cells
Method: as §1, §2

anti-CXCR3 antibody = experiment: ELISA binding of receptor-derived peptides to anti-CXCR3 antibody; design: species or system mouse; conditions: peptide coated on plate, antibody 0.5 μg/well, 2 hours
Method: The ability of these receptor-derived peptides to bind anti-CXCR3 antibody was evaluated using a standard ELISA format. The peptides were dissolved in 0.1 M bicarbonate buffer and coated on a 96 well ELISA plate overnight. The excess peptides were removed and nonspecific binding sites in the wells were blocked by 0.1 % bovine serum albumin. Anti-CXCR3 antibody (0.5 μg/well) was added to these wells and incubated for 2 hours. Excess antibody was removed by washing with PBS. HRP conjugated goat anti-mouse antibody was used as secondary antibody for detection. […] Further support for the conclusion that anti-CXCR3 antibody bound two of the seven receptor-derived peptides was provided by FACS analysis of the same interactions.

[3] = test system: CXCR3 cell line transfectant; experiment: FACS analysis: blocking of anti-CXCR3 antibody binding to CXCR3 transfectant; format: cell-based, human
[4] = test system: human CXCR3 SP-4-1 peptide; experiment: serum ELISA for antibody response to SP4-1 peptide in vaccinated mice; format: in vivo; conditions: serum of vaccinated SJL mice, bled week 0 and week 5, ELISA
Method: The mice were bled at week 0 and week 5 and serum was tested by ELISA for the presence of antibodies against the human CXCR3 SP-4-1 peptide. Briefly, the SP4-1 peptide dissolved in 0.1 M sodium bicarbonate buffer was plated on a 96-well ELISA plate overnight. The nonspecific binding sites on the plate were coated with 0.1% bovine serum albumin solution in PBS. The wells were washed and serum (diluted in PBS) was added to the wells and incubated at room temperature for 1.5 hours. The wells were then washed and HRP conjugated anti-mouse immunoglobulin antibody was used to detect the presence of anti-SP4-1 antibodies).

EAE = experiment: prevention of EAE in mice by peptide vaccination; conditions: SP4-1 with CFA s.c. at 21 and 14 days before induction of EAE with PLP 139-151, SJL mice

acidification rate changes [1] | binding to anti-CXCR3 antibody (anti-CXCR3 antibody) | Substance | acidification rate changes [2] | acidification rate changes ([2]; listed as IP-10) | inhibition of binding of anti-CXCR3 antibody to CXCR3 transfectants [3] | antibody response against SP4-1 peptide [4] | mice showing no clinical symptoms of EAE (EAE)
substantial acidification rate changes |  | human IP-10: human chemokine IP-10, ligand of CXCR3 | no change in acidification rate | did not show any change in acidification rate changes |  |  | 
 | substantial binding | DILMDLGALARNCGRESRVDVAKS-NH2 [SP-4-1] |  |  | potently blocked binding | show an antibody response against this peptide | 7 out of 8
 | nonbinding | DAAVQWVFGSGLCKV-NH2 [SP-2-1] |  |  | failed to inhibit binding |  | 
 | substantial binding | PPCPQDFSLNFDRAFLPA-NH2 [SP-1-3] |  |  | partial inhibition |  | 

Source: patent US20010006942A1, “Chemokine receptor peptide vaccines for treatment and prevention of diabetes” (priority 1998, published 2001)
